Data: patent publication US20250051383A1, “NOVEL FEAZD, NIAZD, AND CUAZD COMPLEXES INCORPORATING 1-(2-HYDROXYPHENYLAZO)-2-NAPHTHOL (H2AZD) FOR BIOLOGICAL APPLICATIONS” (KING FAISAL UNIVERSITY, priority 2023, published 2025)
Converted amounts (≈) assume the structure as drawn. Where two headings read alike, the source gives them in different places.

Legend:
Assay type in all cases: cell-based
Escherichia coli (−ve) [1] = assay: Disc diffusion, inhibition zone and activity index vs chloramphenicol; design: activity index (%): concentration or dose not given beside the values; details: for inhibition zone (IZ): disc diffusion; for activity index (%): IZ of test compound/IZ of standard chloramphenicol ×100
Procedure: (§1) The in vitro antibacterial and antifungal activity of the components was assessed using a series of bacteria (Pseudomonas aeruginosa (−ve), Staphylococcus aureus (+ve), Escherichia coli (−ve), and Bacillus cereus (+ve)) and fungi (Trichophyton rubrum, Aspergillus flavus, and Candida albicans). The disc diffusion method was used to perform the in vitro antimicrobial activity tests. The biological activity of each compound was determined by examining its impact on the size of the inhibition zone, which is a measure of the compound's effectiveness in inhibiting the growth of microorganisms. The inhibitory zone (IZ) surrounding the disc was measured in millimeters. The activity of the current compounds was compared to that of the standard antibiotic chloramphenicol, and the % Activity Index (%=IZ of test compound/IZ of Standard)×100, was evaluated.

[2] = system: Pseudomonas aeruginosa (−ve); assay: as above; design: activity index (%): concentration or dose not given beside the values; details: for inhibition zone (IZ): disc diffusion; for activity index (%): IZ of test compound/IZ of standard chloramphenicol ×100
Procedure: as §1

Aspergillus flavus [3] = assay: as above; details: for activity index (%): IZ of test compound/IZ of standard ×100; for inhibition zone (IZ): disc diffusion
Procedure: as §1

Bacillus cereus (+ve) [4] = assay: as above; details: for activity index (%): IZ of test compound/IZ of standard chloramphenicol ×100; for inhibition zone (IZ): disc diffusion
Procedure: as §1

Candida albicans [5] = assay: as above; details: for activity index (%): IZ of test compound/IZ of standard ×100; for inhibition zone (IZ): disc diffusion
Procedure: as §1

[6] = system: Staphylococcus aureus (+ve); assay: as above; details: for activity index (%): IZ of test compound/IZ of standard chloramphenicol ×100; for inhibition zone (IZ): disc diffusion
Procedure: as §1

Trichophyton rubrum [7] = assay: as above; details: for activity index (%): IZ of test compound/IZ of standard ×100; for inhibition zone (IZ): disc diffusion
Procedure: as §1

Aspergillus flavus [8] = assay: MIC by repeated dilution
Text: (§2) The MIC, or the lowest concentration of a drug that can inhibit the development of bacteria or fungi, is often used as a starting point in larger preclinical studies of new antibacterial medications. The MIC value was obtained by repeatedly diluting a sample until the desired concentration was reached.

Bacillus cereus (+ve) [9] = assay: MIC by repeated dilution
Text: as §2

Candida albicans [10] = assay: MIC by repeated dilution
Text: as §2

Escherichia coli (−ve) [11] = assay: MIC by repeated dilution
Text: as §2

[12] = system: Pseudomonas aeruginosa (−ve); assay: MIC by repeated dilution
Text: as §2

[13] = system: Staphylococcus aureus (+ve); assay: MIC by repeated dilution
Text: as §2

Trichophyton rubrum [14] = assay: MIC by repeated dilution
Text: as §2

bacteria or fungi = assay: MIC by repeated dilution, summary over the tested bacteria and fungi
Text: as §2

O.O.O.c1ccc2c(c1)N=Nc1c(ccc3ccccc13)[O][Cu][O]2 [CuAZD]
inhibition zone (IZ) (Escherichia coli (−ve) [1]): 13 mm | inhibition zone (IZ) [2]: 13 mm | activity index (%) (Aspergillus flavus [3]): 63.16% | inhibition zone (IZ) (Aspergillus flavus [3]): 12 mm | activity index (%) (Bacillus cereus (+ve) [4]): 72.22% | inhibition zone (IZ) (Bacillus cereus (+ve) [4]): 13 mm | activity index (%) (Candida albicans [5]): 61.90% | inhibition zone (IZ) (Candida albicans [5]): 13 mm | activity index (%) [6]: 77.78% | inhibition zone (IZ) [6]: 14 mm | activity index (%) (Trichophyton rubrum [7]): 59.09% | inhibition zone (IZ) (Trichophyton rubrum [7]): 13 mm | MIC (Aspergillus flavus [8]): 6.25 ppm | MIC (Bacillus cereus (+ve) [9]): 6.25 ppm | MIC (Candida albicans [10]): 6.25 ppm | MIC (Escherichia coli (−ve) [11]): 3.125 ppm | MIC [12]: 6.25 ppm | MIC [13]: 6.25 ppm | MIC (Trichophyton rubrum [14]): 6.25 ppm

O.O.[Cl][Fe]1[O]c2ccccc2N=Nc2c(ccc3ccccc23)[O]1 [FeAZD]
activity index (%) (Escherichia coli (−ve) [1]): 60.00% | inhibition zone (IZ) (Escherichia coli (−ve) [1]): 12 mm | activity index (%) [2]: 61.11% | inhibition zone (IZ) [2]: 11 mm | activity index (%) (Aspergillus flavus [3]): 52.63% | inhibition zone (IZ) (Aspergillus flavus [3]): 10 mm | activity index (%) (Bacillus cereus (+ve) [4]): 66.67% | inhibition zone (IZ) (Bacillus cereus (+ve) [4]): 12 mm | activity index (%) (Candida albicans [5]): 57.14% | inhibition zone (IZ) (Candida albicans [5]): 12 mm | activity index (%) [6]: 72.22% | inhibition zone (IZ) [6]: 13 mm | activity index (%) (Trichophyton rubrum [7]): 50.00% | inhibition zone (IZ) (Trichophyton rubrum [7]): 11 mm | MIC (Aspergillus flavus [8]): 6.25 ppm | MIC (Bacillus cereus (+ve) [9]): 6.25 ppm | MIC (Candida albicans [10]): 6.25 ppm | MIC (Escherichia coli (−ve) [11]): 6.25 ppm | MIC [12]: 12.5 ppm | MIC [13]: 6.25 ppm | MIC (Trichophyton rubrum [14]): 6.25 ppm

Oc1ccccc1N=Nc1c(O)ccc2ccccc12 [H2AZD, 1-(2-hydroxyphenylazo)-2-naphthol]
activity index (%) (Escherichia coli (−ve) [1]): 40.00% | inhibition zone (IZ) (Escherichia coli (−ve) [1]): 8 mm | activity index (%) [2]: 44.44% | inhibition zone (IZ) [2]: 8 mm | activity index (%) (Aspergillus flavus [3]): 42.11% | inhibition zone (IZ) (Aspergillus flavus [3]): 8 mm | activity index (%) (Bacillus cereus (+ve) [4]): 44.44% | inhibition zone (IZ) (Bacillus cereus (+ve) [4]): 8 mm | activity index (%) (Candida albicans [5]): 38.10% | inhibition zone (IZ) (Candida albicans [5]): 8 mm | activity index (%) [6]: 50.00% | inhibition zone (IZ) [6]: 9 mm | activity index (%) (Trichophyton rubrum [7]): 31.82% | inhibition zone (IZ) (Trichophyton rubrum [7]): 7 mm | MIC (Aspergillus flavus [8]; read-out: MIC): 50 µg/mL (≈ 189 µM) | MIC (Bacillus cereus (+ve) [9]; read-out: MIC): 50 µg/mL (≈ 189 µM) | MIC (Candida albicans [10]; read-out: MIC): 50 µg/mL (≈ 189 µM) | MIC (Escherichia coli (−ve) [11]; read-out: MIC): 50 µg/mL (≈ 189 µM) | MIC ([12]; read-out: MIC): 50 µg/mL (≈ 189 µM) | MIC ([13]; read-out: MIC): 50 µg/mL (≈ 189 µM) | MIC (Trichophyton rubrum [14]; read-out: MIC): 50 µg/mL (≈ 189 µM) | MIC (bacteria or fungi): ~50 µg/mL (≈ 189 µM)

O.c1ccc2c(c1)N=Nc1c(ccc3ccccc13)[O][Ni][O]2 [NiAZD]
activity index (%) (Escherichia coli (−ve) [1]): 55.00% | inhibition zone (IZ) (Escherichia coli (−ve) [1]): 11 mm | activity index (%) [2]: 61.11% | inhibition zone (IZ) [2]: 11 mm | activity index (%) (Aspergillus flavus [3]): 52.63% | inhibition zone (IZ) (Aspergillus flavus [3]): 10 mm | activity index (%) (Bacillus cereus (+ve) [4]): 61.11% | inhibition zone (IZ) (Bacillus cereus (+ve) [4]): 11 mm | activity index (%) (Candida albicans [5]): 52.38% | inhibition zone (IZ) (Candida albicans [5]): 11 mm | activity index (%) [6]: 72.22% | inhibition zone (IZ) [6]: 13 mm | activity index (%) (Trichophyton rubrum [7]): 45.45% | inhibition zone (IZ) (Trichophyton rubrum [7]): 10 mm | MIC (Aspergillus flavus [8]): 6.25 ppm | MIC (Bacillus cereus (+ve) [9]): 6.25 ppm | MIC (Candida albicans [10]): 6.25 ppm | MIC (Escherichia coli (−ve) [11]): 6.25 ppm | MIC [12]: 12.5 ppm | MIC [13]: 6.25 ppm | MIC (Trichophyton rubrum [14]): 6.25 ppm
